Measured values taken from article PMC6149849, “Cymantrenyl-Nucleobases: Synthesis, Anticancer, Antitrypanosomal and Antimicrobial Activity Studies” (Molecules : A Journal of Synthetic Chemistry and Natural …, 2017).
Like-named read-outs stand apart in the source and are kept apart here.

Columns and labels:
SKOV-3 cells = experiment: Apoptotic/necrotic cell death, Hoechst 33258/propidium iodide staining, fluorescence microscopy; type: cell-based, human; conditions: for increase of apoptotic cells compared to untreated control cells: SKOV-3, 24 h treatment with IC50 concentrations, post-treatment 24 and 48 h; for apoptotic cell fraction predominantly increased: SKOV-3, IC50 concentrations
Experimental: To determine the mode of cell death that was triggered by cymantrene derivatives, appropriately stained SKOV-3 cells were evaluated for morphological changes using fluorescence microscopy. For evaluation of apoptosis and autophagy, cells were stained with Hoechst 33258/propidium iodide to distinguish between live, apoptotic and necrotic cells and reveal condensed chromatin and apoptotic bodies (a hallmark of apoptosis), and with acridine orange to detect the development of acidic vesicular organelles (AVOs—a hallmark of autophagy).
One day prior to the experiments, cells were seeded at the appropriate density into 35 mm diameter dishes. […] At the end of incubation, the medium was aspirated, the cell monolayer was washed twice with pre-warmed PBS, and fresh medium was added. The cells were cultured in drug-free medium for an additional 24 or 48 h to enable them to recover after the exposure to the compounds and to repair any induced damages.
Quantitative analysis of morphological changes that are associated with apoptosis, necrosis, and autophagy were assessed using a fluorescence microscope (Olympus IX70, Tokyo, Japan) at 400× magnification, as described elsewhere. At the indicated time points, cells were washed with PBS, trypsinized, and centrifuged at 1000 rpm (fixed angle rotor, 72× g) for 5 min at 37 °C. The supernatant was removed and the cell pellet (100 µL) was transferred to the Eppendorf tube, mixed with Ho33258 (2 µL, 0.13 mM) and PI (2 µL, 0.23 mM), and incubated for 5 min in the dark at room temperature. At least 300 stained cells were counted in triplicate in each of the three independent experiments. Cells were classified as live, apoptotic, or necrotic on the basis of their morphological and staining characteristics, and each fraction was related to the total cell number.

[1] = tested on: bloodstream forms of T. brucei clone 427-221a; experiment: Trypanocidal assay, resazurin viability assay; type: cell-based, Trypanosoma brucei; conditions: for GI50: 50% growth inhibition; for MIC: concentration at which all cells were killed, determined microscopically; for Selectivity GI50 Ratio / Selectivity MIC Ratio: ratio of cytotoxic (HL-60) to trypanocidal (T. brucei) activity; for MIC and GI50 ratios of cytotoxic to trypanocidal activities: HL-60 / T. brucei
Experimental: (§1) All of the cultures were maintained at 37 °C in a humidified atmosphere containing 5% of CO2. Toxicity assays were performed, as previously described, with some modifications. In brief, trypanosomes and HL-60 cells were seeded at an initial cell density of 10^4/mL and 5 × 10^4/mL, respectively, in 96-well plates in a final volume of 200 μL culture medium containing various concentrations of test compounds dissolved in 100% DMSO. […] The controls contained DMSO alone. In all of the experiments, the final DMSO concentration was 0.9%. After 24 h incubation, 20 µL of a 0.5 mM resazurin solution prepared in PBS was added and the cultures were incubated for a further 48 h. Resazurin is a vital dye that, when being reduced by living cells, changes its colour from blue to pink. Thus, by measuring absorbance, the proliferation of cells can be easily determined. The change in absorbance was read with a microplate reader using a test wavelength of 570 nm and a reference wavelength of 630 nm. GI50 values were calculated by linear interpolation according to the method described by Huber and Koella. MIC values were determined microscopically.

[2] = tested on: human myeloid leukemia HL-60 cells; experiment: in vitro
Experimental: as §1

U87-MG (glioblastoma) = experiment: MTT cytotoxicity assay, U87-MG; type: cell-based, human
Experimental: (§2) Anticancer activity of cymantrenes was determined using a panel of human cancer cell lines that were derived from solid tumors. […] The inhibitory effect of cymantrene derivatives on cell proliferation and growth was determined based on survival curves and was expressed as IC50 values (concentration required to achieve a 50% decrease in cell viability when compared to the viability of untreated control cells) calculated using GraphPad Prism 4.02 software for Windows (GraphPad Software, San Diego, CA, USA). Cell viability was determined by the MTT microplate spectrophotometric cytotoxicity test.
(§3) The cytotoxicity of cymantrene derivatives was evaluated by the MTT microplate methods as described elsewhere [67] by incubating the cells with increasing concentrations of tested compounds for 24 h. Briefly, 0.1 mL of logarithmically growing cells were seeded in a 96-well microplate (5 × 10^4 cells/well) a day before the experiments and after 24 h of culture, tested compounds, dissolved in DMSO, and diluted in culture medium, were added. […] After further incubation for 24 h, the medium was replaced with fresh medium and the cells were allowed to grow for additional 48 h. Then, the medium was aspirated and 0.05 mL of MTT (final concentration of 5 mg/mL medium) added to each well, and the cells were incubated for further 4 h. The absorbance of the product, resulting from the MTT reduction, was read with a microplate reader at 545 nm. The percentage of viable cells was calculated by comparing the absorbance of treated cells with that of the untreated control cells (taken as 100%). The IC50 concentration of each compound was calculated from the cell survival curves using GraphPad Prism 4.02 software for Windows (GraphPad Software, San Diego, CA, USA).

[3] = tested on: A549 (non-small cell lung carcinoma); experiment: MTT cytotoxicity assay, A549
Experimental: Anticancer activity of cymantrenes was determined using a panel of human cancer cell lines that were derived from solid tumors. These included cell lines of estrogen-responsive, doxorubicin resistant, and triple negative breast adenocarcinomas (MCF-7, MCF-7/DX, and MDA-MB-231), ovarian adenocarcinoma (SKOV-3), non-small cell lung carcinoma (A549), hepatocellular carcinoma (HepG2), and glioblastoma (U-87 MG). The inhibitory effect of cymantrene derivatives on cell proliferation and growth was determined based on survival curves and was expressed as IC50 values (concentration required to achieve a 50% decrease in cell viability when compared to the viability of untreated control cells) calculated using GraphPad Prism 4.02 software for Windows (GraphPad Software, San Diego, CA, USA). Cell viability was determined by the MTT microplate spectrophotometric cytotoxicity test.
Anticancer activity of cymantrene derivetives were determined on the basis of their cytotoxic effects on a panel of human cancer cells, as derived from different types of solid tumors: estrogen responsive breast adenocarcinoma (MCF-7), triple negative breast adenocarcinoma (MDA-MB-231), ovarian adenocarcinoma (SKOV-3), non-small cell lung carcinoma (A549), hepatocellular carcinoma (HepG2), and glioblastoma (U-87 MG). Additionally, doxorubicin resistant breast adenocarcinoma cells (MCF-7/Dox) were also included for comparison. All of the cell lines were purchased from American Type Culture Collection (ATCC, Rockville, MD, USA), except the MCF-7/dox cell line, which was a generous gift from Professor Malgorzata Latocha from the Department of Cell Biology, Medical University of Silesia in Katowice, Poland.
Cells were grown as a monolayer in DMEM growth medium, supplemented with 10% FBS, penicillin (10 U/mL) and streptomycin (50 μg/mL), under standard conditions (37 °C, 5% CO2 and 95% air, 100% humidity) and periodically checked for Mycoplasma contamination.
The cytotoxicity of cymantrene derivatives was evaluated by the MTT microplate methods as described elsewhere by incubating the cells with increasing concentrations of tested compounds for 24 h. Briefly, 0.1 mL of logarithmically growing cells were seeded in a 96-well microplate (5 × 10^4 cells/well) a day before the experiments and after 24 h of culture, tested compounds, dissolved in DMSO, and diluted in culture medium, were added. […] After further incubation for 24 h, the medium was replaced with fresh medium and the cells were allowed to grow for additional 48 h. Then, the medium was aspirated and 0.05 mL of MTT (final concentration of […] medium) added to each well, and the cells were incubated for further 4 h. The absorbance of the product, resulting from the MTT reduction, was read with a microplate reader at 545 nm. The percentage of viable cells was calculated by comparing the absorbance of treated cells with that of the untreated control cells (taken as 100%). The IC50 concentration of each compound was calculated from the cell survival curves using GraphPad Prism 4.02 software for Windows (GraphPad Software, San Diego, CA, USA).

[4] = tested on: MDA-MB-231 (triple negative breast adenocarcinoma); experiment: MTT cytotoxicity assay, MDA-MB-231; type: cell-based, human
Experimental: as §2, §3

[5] = concentration at which all cells were killed
[6] = read-out: HL-60 GI50, 50% growth inhibition
[7] = 24 h incubation, MTT, means ± SEM, read-out: cytotoxicity IC50, U87-MG
[8] = read-out: cytotoxicity IC50, A549, 24 h incubation, MTT, means ± SEM
[9] = 24 h incubation, MTT, means ± SEM, read-out: cytotoxicity IC50, MDA-MB-231

Row | Structure (SMILES) | increase of apoptotic cells compared to untreated control cells (SKOV-3 cells) | GI50 [1] | MIC [1] | Selectivity GI50 Ratio [1] | Selectivity MIC Ratio [1] | GI50 [2] | HL-60 MIC [2] | IC50 (U87-MG (glioblastoma)) | IC50 [3] | IC50 [4] | apoptotic cell fraction predominantly increased (SKOV-3 cells) | MIC and GI50 ratios of cytotoxic to trypanocidal activities [1] | HL-60 MIC [2, 5] | GI50 [2, 6] | IC50 (U87-MG (glioblastoma); [7]) | IC50 [3, 8] | IC50 [4, 9] | mitotic cell death (SKOV-3 cells; SKOV-3, morphology)
1 | COC(CCn1cnc2c(N(C)C)ncnc21)[C]12[CH]3[CH]4[CH]5[CH]1[Mn]4532.[C-]#[O+].[C-]#[O+].[C-]#[O+] (racemic) [Compound 6] | 6 fold | 26.1 ± 1.9 µM | 100 µM | 3.6 | >1 | 95.2 ± 44.4 µM | >100 µM | 131 ± 3.53 µM | 102 ± 1.08 µM | > 150 µM | – | – | – | – | – | – | – | –
2 | Nc1ncnc2c1ncn2CCC(O)[C]12[CH]3[CH]4[CH]5[CH]1[Mn]4532[P](c1ccccc1)(c1ccccc1)c1ccccc1.[C-]#[O+].[C-]#[O+] (racemic) [Compound 5] | 9 fold | 3.14 ± 0.31 µM | 10 µM | 9.1 | 10 | – | – | – | – | – | early apoptotic cells | 7–13 | 100 µM | 28.7 ± 3 µM | 54.2 ± 2.71 µM | 23.7 ± 0.86 µM | 56 ± 2.07 µM | –
3 | O=[C]=[Mn](=[C]=O)(=[C]=O)[CH]1C=CC=C1 [CymH, tricarbonyl(η^5-cyclopentadienyl)manganese, reference compound] | – | 44.6 ± 12.3 µM | 100 µM | >2.2 | >1 | – | – | – | – | – | – | – | >100 µM | > 100 µM | 84.4 ± 4.22 µM | 87 ± 1.35 µM | 68.6 ± 1.74 µM | –
4 | COC(CCn1cc(F)c(=O)n(C)c1=O)[C]12[CH]3[CH]4[CH]5[CH]1[Mn]4532.[C-]#[O+].[C-]#[O+].[C-]#[O+] (racemic) [Compound 4] | only a three-fold increase | 29.6 ± 6.8 µM | 100 µM | >3.4 | >1 | > 100 µM | >100 µM | > 150 µM | > 150 µM | > 150 µM | – | – | – | – | – | – | – | –
5 | O=c1[nH]c(=O)n(CCC(O)[C]23[CH]4[CH]5[CH]6[CH]2[Mn]5643[P](c2ccccc2)(c2ccccc2)c2ccccc2)cc1F.[C-]#[O+].[C-]#[O+] (racemic) [Compound 3] | only a three-fold increase | 4.27 ± 0.13 µM | 10 µM | 7.2 | 10 | – | – | – | – | – | – | 7–13 | 100 µM | 30.6 ± 2.6 µM | 24.9 ± 1.24 µM | 20.4 ± 1.09 µM | 35.7 ± 1.44 µM | induced extensive mitotic cell death
6 | O=C(CCn1cc(F)c(=O)[nH]c1=O)[C]12[CH]3[CH]4[CH]5[CH]1[Mn]4532.[C-]#[O+].[C-]#[O+].[C-]#[O+] (centres unmarked) [Compound 1] | 6 fold | 3.02 ± 0.14 µM | 10 µM | 11.0 | 10 | 33.1 ± 3.4 µM | 100 µM | 64.5 ± 3.22 µM | 25.1 ± 1.25 µM | 27.9 ± 1.11 µM | – | 7–13 | – | – | – | – | – | –
7 | CCC(=O)[C]12[CH]3[CH]4[CH]5[CH]1[Mn]4532.[C-]#[O+].[C-]#[O+].[C-]#[O+] (centres unmarked) [Compound 7, propionylocymantrene] | 9 fold | – | – | – | – | – | – | 83.6 ± 1.18 µM | 30.6 ± 1.35 µM | 63 ± 1.32 µM | late-apoptotic cell fraction | – | – | – | – | – | – | –
8 | Nc1ncnc2c1ncn2CCC(O)[C]12[CH]3[CH]4[CH]5[CH]1[Mn]45321[P](c2ccccc2)(c2ccccc2)CC[P]1(c1ccccc1)c1ccccc1.[C-]#[O+] (racemic) [Compound C] | 9 fold | – | – | – | – | – | – | 38.3 ± 1.91 µM | 16.5 ± 0.82 µM | 43.1 ± 1.95 µM | early apoptotic cells | – | – | – | – | – | – | –
